Paper PMC3172082 (Nature, 2009)
Values joined by “and” are separate entries in the source; they are usually repeats but may differ in a detail not shown here. Identical values can stand only once.

Assays:
Mtb Erdman = type: cell-based, Mycobacterium tuberculosis; conditions: non-replicating Mtb
Mtb 20SOG = type: biochemical, Mycobacterium tuberculosis; conditions: by partition ratios
mycobacterial proteasome = mycobacterial proteasome (Mycobacterium bovis, UniProt A1KKF3); assay: cell-based; set-up: species or system Mycobacterium bovis var. BCG; conditions: for inhibition at 50 µM: read-out: inhibition of mycobacterial proteasome activity in intact BCG
BCG = type: cell-based, Mycobacterium bovis var. BCG
[1] = test system: human monocyte-derived macrophages; assay: Cytotoxicity to human monocyte-derived macrophages; type: cell-based; conditions: 7 days incubation; GL5 and HT1171 up to 75 μM
Mtb20SOG = Mtb20SOG (Mycobacterium tuberculosis, UniProt P9WHT9); assay: High throughput screen, Mtb20SOG hydrolysis of Suc-LLVY-AMC; type: biochemical; conditions: 33 μM test compounds
Sequence of Mtb20SOG (P9WHT9 whole entry, looked up): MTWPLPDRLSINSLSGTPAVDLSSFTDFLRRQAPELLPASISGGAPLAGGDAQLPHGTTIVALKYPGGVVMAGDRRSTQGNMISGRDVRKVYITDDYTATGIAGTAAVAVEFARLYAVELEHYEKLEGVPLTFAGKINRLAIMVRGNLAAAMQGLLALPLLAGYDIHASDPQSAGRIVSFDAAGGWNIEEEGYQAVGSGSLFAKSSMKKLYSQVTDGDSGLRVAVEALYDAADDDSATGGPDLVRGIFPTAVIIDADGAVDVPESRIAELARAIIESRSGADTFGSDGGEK

Sequence of mycobacterial proteasome (A1KKF3 whole entry, looked up): as the sequence (P9WHT9 whole entry, looked up) above

SMILES	Mtb killed over 4 days in synergy with nitric oxide (Mtb Erdman; dose-dependent, 50 μM DETA-NO)	fold more effective against Mtb proteasomes than human proteasomes (Mtb 20SOG) [fold]	reduction of proteasome activity in intact BCG (mycobacterial proteasome)	inhibition at 50 µM (mycobacterial proteasome) [%]	killing of BCG (in words) (BCG)	toxicity to human macrophages [1]	mycobactericidal activity compared with GL5 and HT1171 (in words) (Mtb Erdman; DETA-NO, 4 days)	activity in screen against Mtb20SOG (Mtb20SOG)
CSc1sc(C)cc1-c1nsc(=O)o1 [GL5, 5-(5-methyl-2-(methylthio)thiophen-3-yl)-1,3,4-oxathiazol-2-one]	1.5-2.5 log10	> 1000	> 80% and ~ 50%	~90	killed BCG alone and in synergy with sub-bacteriostatic fluxes of nitric oxide	no apparent toxicity		
CC(C)C[C@H](NC(=O)[C@H](Cc1ccccc1)NC(=O)c1cnccn1)B(O)O [bortezomib, reference compound]				52		toxic	less mycobactericidal	
Cc1cc(-c2nsc(=O)o2)c(S(C)(=O)=O)s1 [GL6, 5-(5-methyl-2-(methylsulfonyl)thiophen-3-yl)-1,3,4-oxathiazol-2-one]								inactive
